Values of other authors in US10114931B2, “Pharmaceutical platform technology for the development of natural products” (Sinoveda Canada Inc., priority 2007, dated 2018).
Read-outs that look alike come from different tables or passages of the source. One block for each compound: values may come before it.

Columns and labels:
[1] = in vivo
[2] = in vivo; remark: listed apart in the source
osteoblast formation = details: compared with genistein
[3] = system: bone loss in early postmenopausal women; details: 54 mg/day, given orally for a year
[4] = Yan et al., 2008

Detection in the blood stream [1]: not detected
SMILES: C[C@@H]1O[C@@H](OC[C@H]2O[C@@H](Oc3c(-c4ccc(O)c(O)c4)oc4cc(O)cc(O)c4c3=O)[C@H](O)[C@@H](O)[C@@H]2O)[C@H](O)[C@H](O)[C@H]1O [Rutin]

SMILES: O=c1c(-c2ccc(O)cc2)coc2cc(O)ccc12 [daidzein]
Bioavailability [2]: less than 5%
Potency in osteoblast formation in vitro (osteoblast formation): more potent

SMILES: O=c1c(-c2ccc(O)cc2)coc2cc(O)cc(O)c12 [genistein]
Efficacy compared with hormone replacement therapy [3]: as effective as hormone replacement therapy

Bioavailability [4]: less than 3%
SMILES: CCC/C=C1\OC(=O)C2=C1CCC=C2 [z-ligustilide]
